# Experimental data as given in paper PMC6112376, “Comprehensive Analyses and Prioritization of Tox21 10K Chemicals Affecting Mitochondrial Function by in-Depth Mechanistic Studies” (Environmental Health Perspectives, 2018).
# Where two headings read alike, the source gives them in different places.
# Legend:
# HepG2 cells [1] = details: for IC50: read-out: MMP assays IC50 (µM) HepG2
# HepG2 cells [2] = details: cited from earlier work
# rat primary hepatocytes = experiment: MMP assay in rat primary hepatocytes; details: for IC50: read-out: MMP assays IC50 (µM) Rat Hepatocytes
# [3] = HepG2 cells, single number from one experiment
# [4] = read-out: MMP assays IC50 (µM) qHTS-HepG2
# [5] = rat hepatocytes, mean ± SD of three experiments
# [6] = read-out: MMP assays IC50 (µM), qHTS-HepG2
SMILES,MMP assays efficacy (%) HepG2 (HepG2 cells [1]; [3]),IC50 (HepG2 cells [1]; [3]) [µM],MMP assays efficacy (%) qHTS-HepG2 (HepG2 cells [2]),IC50 (HepG2 cells [2]; [4]) [µM],MMP assays efficacy (%) Rat Hepatocytes (rat primary hepatocytes; [5]),IC50 (rat primary hepatocytes; [5]) [µM],MMP assays IC50 (µM) HepG2 (HepG2 cells [1]),MMP assays efficacy (%) HepG2 (HepG2 cells [1]),MMP assays IC50 (µM) qHTS-HepG2 (HepG2 cells [2]),MMP assays IC50 (µM) Rat Hepatocytes (rat primary hepatocytes),MMP assays IC50 (µM) Rat Hepatocytes (rat primary hepatocytes; [5]),IC50 (HepG2 cells [2]; [6]) [µM],MMP assays IC50 (µM) HepG2 (HepG2 cells [1]; [3]),"IC50 (rat primary hepatocytes; Rattus norvegicus, Hepatocyte) [µM]"
Oc1ccc2cc(SSc3ccc4cc(O)ccc4c3)ccc2c1 [6-Hydroxy-2-naphthyl disulfide],-98%,28.2,-110±7%,33.7 ± 3.64,-68±46%,39.8,–,–,–,–,–,–,–,–
CCCCC/C(C=O)=C/c1ccccc1 [Amyl cinnamal],–,–,inactive,–,–,–,inactive,inactive,inactive,inactive,–,–,–,–
O=C=Nc1cccc(C(F)(F)F)c1 [1-Isocyanato-3-(trifluoromethyl)benzene],-108%,6.31,-119±7%,3.28 ± 1.13,-107±13%,11.5 ± 3.69,–,–,–,–,–,–,–,–
CC(=O)c1ccc2ccc3ccccc3c2c1 [Compound 3-Acetylphenanthrene],-105%,56.2,-105±10%,36.9 ± 13.7,-44±5%,42.2 ± 19.8,–,–,–,–,–,–,–,–
CCCCCCCC[N+](CCCCCCCC)(CCCCCCCC)CCCCCCCC.[Br-] [tetra-N-Octylammonium bromide],-92%,0.13,-88±6%,–,inactive,–,–,–,–,–,inactive,–,–,–
Cl.Nc1ccc2cc3ccc(N)cc3nc2c1 [Proflavin hydrochloride],-97%,3.55,-115±14%,–,-79±34%,15.9 ± 5.23,–,–,–,–,–,1.66 ± 0.63,–,–
O=C1OC(OC(=O)c2cccnc2Nc2cccc(C(F)(F)F)c2)c2ccccc21 (stereo not shown) [Talniflumate],inactive,–,-105±19%,–,-85±2%,–,–,–,–,–,–,27 ± 2.56,inactive,16 ± 6.68
Cc1cc2c(cc1C(F)(F)F)N(C(=O)Nc1ccc(Oc3cccnc3C)nc1)CC2.Cl,-104%,2,-159±11%,14.4 ± 5.99,-98±10%,6.15 ± 3.62,–,–,–,–,–,–,–,–
CC(C)[C@@H](C)/C=C/[C@@H](C)[C@H]1CC[C@H]2/C(=C/C=C3\C[C@@H](O)CC[C@@H]3C)CCC[C@]12C [Dihydrotachysterol],inactive,–,-78±16%,32.7 ± 1.32,inactive,–,–,–,–,–,inactive,–,inactive,–
Cc1cc(C(=C2C=CC(=N)C=C2)c2ccc(N)cc2)ccc1N [C.I. Basic violet 14],-96%,0.87,-87±10%,0.18 ± 0.16,-71±37%,6.84 ± 4.71,–,–,–,–,–,–,–,–
Cc1ccc2oc(CN(Cc3ccccc3)C(=O)Nc3c(F)cc(F)cc3F)c(-c3ccc(Cl)cc3)c2c1,-66%,56.2,-59±30%,21 ± 2.43,inactive,–,–,–,–,–,inactive,–,–,–
Nc1nc(-c2ccc([N+](=O)[O-])cc2)cs1 [2-Amino-4-(p-nitrophenyl)thiazole],-54%,8.91,-59±9%,3.9 ± 1.78,-53±16%,20.6 ± 21.1,–,–,–,–,–,–,–,–
Cc1cc2nc3ccc(N(C)C)cc3[s+]c2cc1N.[Cl-] [Toluidine blue],-44%,4.89,-50±26%,–,inactive,–,–,–,–,–,inactive,3.48 ± 1.6,–,–
